Values after ≈ are worked out from the molar mass of the structure shown. Values joined by “and” are separate entries in the source; they are usually repeats but may differ in a detail not shown here. Identical values can stand only once.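 Exposure lasted 48 hours, with cells grown in 96-well plates and compounds tested at five concentrations. At the GI50, growth is halved. TGI: concentration producing complete growth inhibition.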
Assays:
Assay in all cases: NCI anticancer screen, dose series, 48 h
HOP-62 NSCLC = system: HOP-62 NSCLC
HT29 colon = system: HT29 colon
MOLT-4 leukemia = system: MOLT-4 leukemia
HS 578T breast = system: HS 578T breast
HOP-92 NSCLC = system: HOP-92 NSCLC
NCI-H226 lung = system: NCI-H226 lung
UACC-257 melanoma = system: UACC-257 melanoma
DMS 273 small cell lung = system: DMS 273 small cell lung
OVCAR-5 ovarian = system: OVCAR-5 ovarian
KM20L2 colon = system: KM20L2 colon

SMILES	TGI (HOP-62 NSCLC)	GI50 (HT29 colon)	TGI (HT29 colon)	GI50 (MOLT-4 leukemia)	TGI (HS 578T breast)	GI50 (HOP-92 NSCLC)	TGI (HOP-92 NSCLC)	TGI (NCI-H226 lung)	TGI (UACC-257 melanoma)	GI50 (DMS 273 small cell lung)	TGI (OVCAR-5 ovarian)	TGI (MOLT-4 leukemia)	TGI (KM20L2 colon)	TGI (DMS 273 small cell lung)	GI50 (KM20L2 colon)	GI50 (HS 578T breast)	GI50 (HOP-62 NSCLC)	GI50 (NCI-H226 lung)	GI50 (UACC-257 melanoma)	GI50 (OVCAR-5 ovarian)
COc1cc2c(cc1O)CCN[C@@]21CS[C@H]2c3c(OC(C)=O)c(C)c4c(c3C(COC1=O)N1C2C2NC(Cc3cc(C)c(OC)c(O)c32)[C@@H]1O)OCO4 (some centres undefined)	< 10 nM and 3.8e-07 µg/mL and 0.0045 µg/mL	4.5 ng/mL	11.1 µM and 5.58 µg/mL	4.5 ng/mL	0.302 µM	0.000135 ng/mL (≈ 0.000181 nM)	9.17 µM and 5.9e-07 µg/mL	0.000273 ng/mL	14.7 nM and 2.1e-07 µg/mL	4.5 ng/mL	14.6 µM and 7.3e-07 µg/mL and 0.0045 µg/mL									
NN=C1/C(=C\c2ccccc2)CCC/C1=C/c1ccccc1	> 100 µM						76.7 µM		> 100 µM		> 100 µM	37.4 µM	> 100 µM	> 100 µM						
O=C1c2c(c3c4ccccc4n(CC4CO4)c3c3[nH]c4ccccc4c23)C(=O)N1Cc1ccccc1 (centres undefined)	> 100 µM		> 100 µM				> 100 µM	> 100 µM	> 100 µM		> 100 µM	> 100 µM		> 100 µM						
N/N=C1/C(=O)N(c2ccc(Cl)cc2)C(=O)C(=O)C1c1nc2ccccc2s1 (centres undefined)	> 100 µM		> 100 µM				> 100 µM		> 100 µM		> 100 µM	> 100 µM	> 100 µM	> 100 µM						
CCOC(=O)C1=C(C)N(NC(=O)Nc2ccccc2)C2(N)N(NC(=O)Nc3ccccc3)C(C)=C(C(=O)OCC)C12C#N (centres undefined)			38.1 µM				39.4 µM	36.1 µM	38.5 µM		32.4 µM	56.8 µM	33.4 µM	31.3 µM						
CC1=Nc2ccccc2S/C1=C1/C=NC(=NC#N)N=C1C(=O)Nc1cccc(Cl)c1	> 100 µM		> 100 µM					> 100 µM	> 100 µM		> 100 µM	> 100 µM	> 100 µM	> 100 µM						
C#Cc1c(C)c(/C=C/C(C)=C\C(=O)OC)n(C)c1C	> 100 µM		> 100 µM				> 100 µM	> 100 µM	> 100 µM		> 100 µM	> 100 µM	> 100 µM	> 100 µM						
N#Cc1c(N)oc2cc3c(C#N)c(N)oc3cc12	> 100 µM		> 100 µM				> 100 µM		> 100 µM		> 100 µM	> 100 µM	> 100 µM	> 100 µM						
CC1OC(O[C@@H]2C=C3CC[C@@H]4[C@H](CC[C@]5(C)[C@@H](c6ccc(=O)oc6)CC[C@]45O)[C@@]3(C)CC2)C(O)C(O)C1O (some centres undefined)					0.003 µM		0.003 µM and 0.000676 µM		0.0197 µM and 0.04 µM	0.000892 µM	0.0115 µM and 0.0318 µM	0.00127 µM		0.003 µM	0.00131 µM	0.00326 µM				
CCN(CC)c1ccc(N=Nc2ccc(-c3nc4cccnc4s3)cc2)cc1	> 100 µM		> 100 µM				> 100 µM	> 100 µM	> 100 µM		> 100 µM	> 100 µM	> 100 µM							
CC(C)(c1ccc(C=O)o1)c1ccc(C(C)(C)c2ccc(C=O)o2)o1	> 100 µM		> 100 µM				> 100 µM	> 100 µM	> 100 µM		> 100 µM	> 100 µM	> 100 µM	> 100 µM						
COc1cc(O)c(C(=O)C2Cc3ccccc32)c(OC)c1 (centres undefined)	> 100 µM		> 100 µM				> 100 µM	86 µM	> 100 µM		> 100 µM	45.8 µM	> 100 µM	> 100 µM						
Cc1nc2ccccc2c(=O)n1/N=C(\N=Nc1cc(Cl)ccc1Cl)c1ccc(N(C)C)cc1	83 µM		> 100 µM									> 100 µM	> 100 µM	> 100 µM						
O=C(CC1(O)C(=O)Nc2ccccc21)c1cccc(O)c1 (centres undefined)	> 100 µM		> 100 µM				> 100 µM	> 100 µM	> 100 µM		> 100 µM	> 100 µM	> 100 µM	> 100 µM						
CC(=O)[CH-]C(=O)c1ccccc1.CC(=O)[CH-]C(=O)c1ccccc1.Cl.[O-]CCc1ccccn1.[O-]CCc1ccccn1.[Ti+4]	47.7 µM	22.4 µM	77.1 µM	13.3 µM				78.3 µM	> 100 µM		> 100 µM	49.3 µM	> 100 µM		36.2 µM		23.6 µM	18.7 µM	28.3 µM	43.3 µM
C(=C\c1ccc2ccccc2c1Nc1ccccc1)/c1ccccc1	62.5 µM		> 100 µM				45.5 µM	> 100 µM	> 100 µM		> 100 µM	36.9 µM	> 100 µM	> 100 µM						
O=C1N(c2ccc(Cl)cc2)C(=O)C2(SC=NN2Cc2ccccc2)N1c1ccc(Cl)cc1 (centres undefined)	> 100 µM		> 100 µM				> 100 µM	> 100 µM	> 100 µM			> 100 µM	> 100 µM							
CN(C)NC(=O)NC12CC3CC(CC(C3)C1)C2			> 100 µM				> 100 µM	> 100 µM	> 100 µM		> 100 µM	> 100 µM	> 100 µM	> 100 µM						
